# Measurements from PMC12693327, “SERAAK2 as a Serotonin Receptor Ligand: Structural and Pharmacological In Vitro and In Vivo Evaluation” (Molecules, 2025).
# Entries after “also recorded” stand apart in the source; their conditions may differ.
# Legend:
# [1] = tested on: mice; experiment: Motor coordination, chimney test; assay type: in vivo; conditions: 7.5 mg/kg i.p., 60 min before test, similar to control
# Protocol: (§1) The investigated compound (SER2AAK2) was bought from Enamine (purity over 95%) and in all tests was administered intraperitoneally (i.p.), spread in a drop of Tween 80, and diluted with an aqueous solution of 0.5% methylcellulose (tylose) and injected 60 min before the tests in a volume of 10 mL/kg. Control groups received tylose injections of the same volume and via the same route of administration.
# The effects of the SER2AAK2 compound were also measured in the rotarod and chimney tests. In the rotarod test, mice were evaluated for their ability to maintain balance on a constantly rotating rod (18 rpm) for 1 min. The chimney test involved placing a mouse in a horizontal polymer tube (3 cm diameter, 25 cm length). Once the mouse reached the far end, the tube was positioned vertically, requiring the animal to climb backwards to exit. Right motor coordination was defined as exiting the chimney within 60 s. Prior to testing, mice underwent a 3-day training. Only those animals that were able to stay on the rotating rod or leave the chimney within the required time were included in the study.
# [2] = biological target: 5-HT7 receptor; design: method as in PMID 38619283; conditions: cited from earlier work
# [3] = biological target: serotonin 5-HT2A receptor; design: method as in PMID 38619283; conditions: cited from earlier work
# [4] = tested on: mice; experiment: Forced swim test (FST); assay type: in vivo; conditions: 7.5 mg/kg i.p., 60 min before test
# Protocol: as §1
# The study was carried out using the test proposed by R. Porsolt. The method is based on the observation of an animal forced to swim in a confined space from which there is no escape. After an initial period of vigorous attempts to get out, the animal finally gives up on escaping. The test consists of immersing the mouse individually in a cylindrical beaker (diameter 10 cm, height 25 cm) filled with water (at a temperature of 23–25 °C) at a height of 10 cm for 6 min. The immobility time was measured during the final 4 min of the test (between 2 and 6 min).
# [5] = tested on: mice; experiment: Spontaneous locomotor activity; assay type: in vivo; conditions: 60 min before test
# Protocol: as §1
# (§2) Locomotor activity of the mice was assessed using the Opto-Varimex-4 Auto-Track system (Columbus Instruments, OH, USA). Each mouse was placed individually in a testing cage for 25 min—5 min for acclimatization, followed by 20 min of activity recording. (6a) The total distance traveled (in centimeters) was measured. Cages were cleaned with 10% ethanol between sessions.
# [6] = PAMPA membrane permeability; assay type: in vitro ADME; conditions: 100 µM in PBS pH 7.4, 5 h
# Protocol: In this study, PAMPA was employed to evaluate the passive diffusion of SERAAK2 through a lipid-infused artificial membrane.
# The membrane permeability assay was conducted employing the pre-coated PAMPA Plate System Gentest from Corning (Tewksbury, MA, USA), following the manufacturer’s provided instructions. SERAAK2, along with reference compounds, were prepared in PBS buffer at a pH of 7.4 to reach a final concentration of 100 µM, and these solutions were loaded onto the donor plate of the 96-well system. […] The permeability coefficient (Pe, expressed in cm/s) was subsequently derived by applying the calculation formula supplied by the manufacturer of the PAMPA system.
# [7] = biological target: 5-HT1A receptor; design: method as in PMID 38619283; conditions: cited from earlier work
# [8] = biological target: T1, CYP3A4 (Homo sapiens, UniProt P08684); experiment: CYP3A4 luminescent luciferase-based assay (Glo kit); assay type: in vitro ADME; conditions: mean ± SEM, two experiments, n = 3 each, read-out: CYP3A4 Activity Inhibition, Evaluated at the Concentration of 10 µM [% of Inhibition ± SEM]
# T1 construct: purchased Promega
# Protocol: The effect of SERAAK2 on the activity of the cytochrome P450 isoforms CYP3A4 and CYP2D6 was tested using commercial luminescence assays (Glo kits bought from Promega, Medison, WI, USA). The experiment was performed twice with triplicate samples, following the manufacturer’s guidelines and established procedures.
# [9] = tested on: mice; experiment: Amphetamine-induced hyperactivity; assay type: in vivo; conditions: 7.5 mg/kg i.p. 60 min before test, amphetamine 3 mg/kg 30 min later
# Protocol: as §1, §2
# [10] = tested on: HepG2 cells; experiment: MTS cytotoxicity assay in HepG2 cells; assay type: cell-based, human; conditions: 72 h
# Protocol: The cytotoxic potential of SERAAK2 was evaluated in two human-derived cell lines chosen for their physiological relevance: HepG2 (hepatocellular carcinoma) and SH-SY5Y (neuroblastoma). […] It is particularly noteworthy that the use of the SERAAK2 compound at a concentration of 30 µM reduces the number of viable cells below the level of the positive control (doxorubicin) at the same concentration (Table 3). […] Under the experimental conditions used, after 72 h of incubation, a fraction of doxorubicin-treated cells remains metabolically active and generates a low signal in the MTS assay. The enhanced signal reduction observed in the MTS assay for the tested compound, compared to doxorubicin, indicates strong cytotoxic activity leading to necrosis of the entire cell population.
# An assessment of the cytotoxic potential of SERAAK2 was carried out utilizing the colorimetric MTS assay. This investigation was executed on both HepG2 and SH-SY5Y cell lines, adhering to an identical procedure. The cell lines, sourced from the American Type Culture Collection (Manassas, VA, USA), were cultured under standard conditions (5% CO2, 37 °C) in DMEM/F12 medium (#31330-038, ThermoFisher Scientific, Waltham, MA, USA). The medium was supplemented with 10% Fetal Bovine Serum (FBS, #A5256801, ThermoFisher Scientific) and a Penicillin–Streptomycin solution (#15140-122, ThermoFisher Scientific) until their use in the study. Cells within passage numbers 15 to 25 were plated in 96-well plates at a density of 5000 cells per well in 200 μL of medium and allowed to adhere during a 24 h incubation at 37 °C with 5% CO2. […] The plates were then subsequently returned to the 37 °C incubator, after which absorbance was recorded with a Spark microplate reader; this measurement occurred after 1 h for the HepG2 line and 3 h for the SH-SY5Y line. The ultimate cell viability percentage was determined by comparing results to the control wells, which represented 100% viability, and the wells treated with 10 μM doxorubicin, which were defined as 0% viability. […]
# T1 sequence (P08684 whole entry): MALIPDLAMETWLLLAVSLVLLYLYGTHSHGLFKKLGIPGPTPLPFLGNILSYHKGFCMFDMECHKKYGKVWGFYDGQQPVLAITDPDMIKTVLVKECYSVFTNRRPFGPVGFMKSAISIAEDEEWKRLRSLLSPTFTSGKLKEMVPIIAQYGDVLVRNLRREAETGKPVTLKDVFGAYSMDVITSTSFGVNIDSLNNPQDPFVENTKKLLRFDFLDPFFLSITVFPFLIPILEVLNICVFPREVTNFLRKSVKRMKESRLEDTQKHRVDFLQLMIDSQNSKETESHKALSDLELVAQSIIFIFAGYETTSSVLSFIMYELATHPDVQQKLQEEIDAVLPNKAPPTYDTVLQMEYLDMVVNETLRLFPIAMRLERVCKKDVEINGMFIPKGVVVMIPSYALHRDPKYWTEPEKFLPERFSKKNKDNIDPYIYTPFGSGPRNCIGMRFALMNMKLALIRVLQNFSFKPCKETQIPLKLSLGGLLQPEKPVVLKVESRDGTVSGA
smiles,measurement,setting,value
OC(CNCCc1c[nH]c2ccccc12)COc1ccc(Oc2ccccc2)cc1 (centres unmarked) [SERAAK2],time to leave the chimney,[1],about 13 s
same,Ki,[2],914 ± 25 nM
same,Ki,[3],422 ± 74 nM
same,FST immobility time,[4],significant decrease in immobility time; also recorded: ↓ immobility (7.5 mg/kg) antidepressant-like effect connected with serotonergic modulation
same,Spontaneous locomotor activity,"[5]; mice, 7.5 mg/kg i.p., 7.5 mg/kg",inactive; also recorded: no effect
same,Spontaneous locomotor activity,"[5]; mice, 60, 30 and 15 mg/kg i.p., 20 min recording",statistically significant reduction in locomotor activity; also recorded: reduced activity
same,Pe ± SD,[6],1.1 ×10⁻⁶ cm/s
same,"Papp at 5 h, 100 µM",[6]; read-out: Pe ± SD,1.1 ± 0.35 ×10⁻⁶ cm/s
same,Ki,[7],153 ± 0.4 nM
same,inhibition at 10 µM,[8],0%
same,amphetamine-induced hyperactivity,[9],did not significantly modify this hyperactivity; also recorded: no effect
same,cytotoxic effects in HepG2 cells,[10]; 0.3 µM,no cytotoxic effects
same,HepG2 cell viability,[10]; 3 µM,85 % of the control
same,Percentage Reduction in the Number of Viable HepG2 Cells [Mean ± SEM],[10]; 30 µM,104 ± 1%
